Experimental data: patent publication US12358847B2, “Liquid formulations of urease inhibitors for fertilizers” (Soilgenic Technologies, LLC, priority 2012, dated 2025)

Experiments:
[1] = in vivo; cited from earlier work
[2] = Maximum Allowable Dosage Level per day (California Proposition 65); cited from earlier work
[3] = Dynamic viscosity of protic solvents with DMSO vs. NMP co-solvent (Brookfield viscometer); assay type: physicochemical; details: 21° C.; in propylene glycol, glycerin, MIPA
From the text: Dynamic viscosity measurements were collected for propylene glycol, glycerin, and a representative alkanolamine (monoisopropanolamine, MIPA) with increasing levels of DMSO and NMP. A Brookfield LVDV-E digital rotational viscometer with LVDV-E spindle set (Brookfield Engineering Labs, Inc., Middleboro, Mass.) was employed for this work and was calibrated using Cannon […] general purpose, synthetic base oil viscosity calibration standard solution (Cannon Instrument Company, State College, PA). The sampling was conducted at 21° C.

[4] = in vivo; cited from earlier work; remark: listed apart in the source
[5] = Accelerated chemical stability of NBPT solutions at 50 °C, HPLC; details: 45 days at 50±1° C.
[6] = 25° C.; cited from earlier work

C[S+](C)[O-] [Dimethyl sulfoxide, dimethyl sulfoxide]
Dermal LD-50 [1]: 40,000
Inhalation toxicity (MADL) [2]: None established
reducing the viscosity of viscous formulations, DMSO vs. NMP [3]: virtually no difference
Oral LD-50 [4]: 14,500-28,300

CN1CCCC1=O [N-methyl pyrrolidone, reference compound]
Dermal LD-50 [1]: 8,000
Inhalation toxicity (MADL) [2]: 3200 µg/day
Oral LD-50 [4]: 3,914

CCCCNP(N)(N)=S [NBPT, N-(n-butyl) thiophosphoric triamide]
NBPT deterioration at elevated temperature ([5]; solution of example 4: 50% PG, 25% DMSO, 25% NBPT): did not have significant deterioration
NBPT deterioration at elevated temperature ([5]; solution of example 6: 35% PG, 40% DMSO, 25% NBPT): did not have significant deterioration
NBPT deterioration at elevated temperature ([5]; solution of example 8: 20% PG, 40% DMSO, 40% NBPT): did not have significant deterioration
NBPT deterioration at elevated temperature ([5]; solution of example 10: 48.5% glycerine, 1.5% methanol, 25% DMSO, 25% NBPT): did not have significant deterioration
NBPT deterioration at elevated temperature ([5]; solution of example 12: 33.5% glycerine, 1.5% methanol, 25% DMSO, 40% NBPT): did not have significant deterioration

CC(O)CO (stereo not shown) [propylene glycol]
dynamic viscosity [6]: 48.8 centipoise
